In PubChem BioAssay (NCI) one finds TGI and GI50 data, which are given here for nine compounds.

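Step 1: Grow cells in 96-well plates. Step 2: Expose to compound for 48 hours at 5 concentrations. Step 3: Interpolate endpoints linearly; if unreached, use highest concentration. The concentration for 50% growth inhibition is given as GI50. At the TGI there is no net growth.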

Holding throughout (assay): NCI-60 cell line screen, 48 h
For assay [1], the system named is ACHN renal.
Assay [2] has as its system CAKI-1 renal.
The test system of assay [3] is DU-145 prostate.
The subject of assay [4] is HOP-62 NSCLC.
Assay [5] relates to K-562 leukemia.
In assay [6] the test system is M14 melanoma.
Assay [7] deals with SK-MEL-2 melanoma.
Assay [8] deals with SN12C renal.
Assay [9] relates to SNB-19 CNS.
In assay [10] the test system is SNB-75 CNS.

`COS(C)(=O)=O`: the TGI in assay [1], in assay [2], in [3], in assay [4], in assay [5] and in assay [6] was > 2 µM throughout. Further, the TGI in assay [7], in assay [8], in assay [9] and in assay [10] was > 2 µM in each case.
As to `CCCCOc1ccc(/C=N/Nc2cc(C)nc3ccc(Br)cc23)cc1`, the GI50 in [1] was 1.73 µM; in assay [2], 1.71 µM; in assay [3], 1.94 µM; in assay [4], 1.47 µM; in [5], 1.71 µM; in [6] it was 1.74 µM. For the same compound, the GI50 in [7] is 1.47 µM; in assay [8], 1.74 µM; in assay [9], 1.86 µM; in assay [10], 1.7 µM. Moreover, the TGI in assay [1] was found to be 3.11 µM; in [2], 3.11 µM; in assay [3], 3.87 µM; in assay [4] it was 2.94 µM; in assay [5], 3.97 µM; in assay [6], 3.2 µM. Also, the TGI in [7] was 2.86 µM; in assay [8], 3.25 µM; in assay [9], 3.41 µM; in [10] it was 3.24 µM.
Take `O=C(c1ccc([N+](=O)[O-])cc1)C(Br)C(Br)c1ccnc2ccccc12` (stereo not given): the TGI in [1] is 17 µM; in assay [2], 24.6 µM; in assay [3], 24.4 µM; in [4] it was 29.7 µM; in [5] it was > 33.3 µM; in assay [6], 9.81 µM. In addition, the TGI is 26.4 µM in assay [7], 14.4 µM in [8], 30.8 µM in [9] and 13.1 µM in assay [10].
Take `COc1ccc2c(O)c(/C=C3\N=Nc4ncccc43)oc2c1C[C@@H]1CCNC[C@H]1F`: the GI50 was 0.51 µM in assay [1]; 0.848 µM in assay [2]; 0.809 µM in assay [3]; 0.336 µM in assay [4]; 0.442 µM in assay [5]; 0.557 µM in assay [6]. For the same compound, the GI50 in [7] is 1.93 µM; in [8] it was 0.458 µM; in [9], 0.541 µM; in assay [10], 0.378 µM. Also, the TGI in assay [1] turned out to be 2.83 µM; in assay [2], 6.47 µM; in assay [3] it was 4.19 µM; in assay [4] it was 2.94 µM; in assay [5], 1.79 µM; in assay [6] it was 2.2 µM. The TGI in assay [7] is 4.04 µM; in assay [8], 2.22 µM; in assay [9], 7.59 µM; in assay [10] it was 1.94 µM.
Consider `C#C[C@@]1(O)[C@@H](CO)O[C@@H](n2cc(C(F)(F)F)c3c(N)ncnc32)[C@@H]1O`, for which the GI50 in assay [1] is 0.831 µM; in assay [2] it was 2.19 µM; in [3], 0.433 µM; in [4], 1.75 µM; in assay [5], 0.291 µM; in assay [6], 0.724 µM. Besides, the GI50 in assay [7] is 0.913 µM; in [8], 0.658 µM; in assay [9], 1.53 µM; in assay [10], 1.12 µM. For the same compound, the TGI in [1] was > 100 µM; in assay [2], > 100 µM; in assay [3], > 100 µM; in assay [4] it was > 100 µM; in assay [5], 0.909 µM; in [6], 3.56 µM. Moreover, the TGI in assay [7] is 2.85 µM; in [8], > 100 µM; in [9], > 100 µM; in assay [10], 3.42 µM.
For `Cc1c2ccncc2c(C)c2c1sc1ccccc12`, the TGI is 15.7 µM in [1]; 27.9 µM in assay [2]; 29.7 µM in assay [3]; 21.9 µM in [4]; 41.1 µM in [5]; 26.4 µM in [6]. Also, the TGI worked out at 50.4 µM in [7], 23.8 µM in [8], 26.7 µM in assay [9] and 36.5 µM in assay [10].
Turning to `COc1ccc(C2C(C#N)=C(N)Oc3c2sc2c(Br)cccc32)cc1` (stereo not given), the GI50 in [1] was 4.82 µM; in [2], 2.47 µM; in assay [3], 3.27 µM; in assay [4] it was 4.48 µM; in assay [5] it was 0.404 µM; in [6] it was 1.46 µM. Also, the GI50 in assay [7] is 2.38 µM; in assay [8], 4 µM; in assay [9], 4.04 µM; in assay [10], 1.61 µM. Moreover, the TGI was determined as 19.3 µM in assay [1]; 18.2 µM in [2]; 11.2 µM in assay [3]; 17.5 µM in assay [4]; 5.79 µM in assay [5]; 6.8 µM in [6]. In addition, the TGI stood at 12.7 µM in assay [7], 17 µM in assay [8], 21.6 µM in [9] and 8.06 µM in assay [10].
Turning to `COc1ccc(-c2cc(-c3ccc(Cl)cc3)nc(NCCCCNc3ccnc4cc(Cl)ccc34)n2)cc1`, the GI50 in [1] was 12.6 µM; in [2] it was 10.6 µM; in assay [3] it was 2.25 µM; in [4] it was 1.69 µM; in assay [5] it was 1.83 µM; in assay [6], 2.34 µM. Besides, the GI50 was 20.3 µM in assay [7], 1.5 µM in [8], 11 µM in assay [9] and 10 µM in assay [10]. Also, the TGI in assay [1] stood at 25.6 µM; in [2] it was 22.6 µM; in [3], 4.79 µM; in assay [4] it was 3.44 µM; in assay [5], 5.02 µM; in assay [6], 6.3 µM. Moreover, the TGI was determined as 52.8 µM in assay [7], 3.18 µM in [8], 25.7 µM in assay [9] and 22.1 µM in assay [10].
On to `COc1cc(-c2nc3ccccc3o2)cc(CN2CCCCC2)c1O`, for which the GI50 in assay [1] is 8.96 µM; in [2], 14.3 µM; in assay [3], 1.82 µM; in assay [4], 2.58 µM; in [5], 8.18 µM; in assay [6], 1.48 µM. The GI50 was 4.58 µM in [7], 1.5 µM in [8], 5.44 µM in assay [9] and 2.3 µM in [10]. The TGI in [1] was 83.8 µM; in assay [2], > 100 µM; in assay [3], 3.33 µM; in assay [4], 9.96 µM; in assay [5], > 100 µM; in assay [6], 3.26 µM. Besides, the TGI in assay [7] came out at 15.8 µM; in assay [8], 4.25 µM; in [9] it was 26.9 µM; in [10], 4.76 µM.
